In patent publication US8372847B2, “Pyrazinone modulator of corticotropin-releasing factor receptor activity” (Bristol-Myers Squibb Company, priority 2008, dated 2013):

How the values were obtained:
Male Sprague-Dawley rats [1] = experiment: Situational anxiety behavioral model in rats (latency to exit dark cylinder into open field); type: in vivo, rat
From the text: Situational Anxiety Behavioral Studies in Rats. (S)-4-(1-Cyclopropyl-2-methoxyethyl)-6-(6-(difluoromethoxy)-2,5-dimethylpyridin-3-ylamino)-5-oxo-4,5-dihydropyrazine-2-carbonitrile has been evaluated in a situational anxiety model to evaluate its anxiolytic potential. In this model, rats are placed in a small, darkened chamber located in an unfamiliar open field. Vehicle-treated rats spend most of the time within the chamber, consistent with a heightened state of anxiety [Takahashi L. K. et al, Behav. Neurosci. 103: 648-654, (1989)]. This model is sensitive to anxiolytics, including benzodiazepines such as chlordiazepoxide [Yang X-M. et al, J. Pharmacol. Exp. Ther. 255: 1064-1070, (1990)]. In addition, previous CRF1 antagonists, such as DMP696 and DMP904 [McElroy J. F. et al., Psychopharmacology 165: 86-92, (2002); Lelas S. et al., J. Pharmacol. Exp. Ther. 309: 293-302, (2004)] were effective this model. The effects of (S)-4-(1-cyclopropyl-2-methoxyethyl)-6-(6-(difluoromethoxy)-2,5-dimethylpyridin-3-ylamino)-5-oxo-4,5-dihydropyrazine-2-carbonitrile were compared with those of anxiolytic standards chlordiazepoxide (Librium®) and diazepam (Valium®) in this model. Male Sprague-Dawley rats weighing 180-300 g were purchased from Charles River Laboratories (Wilmington, Mass.). The rats were housed individually in suspended wire cages in colony rooms maintained at a constant temperature (21±2° C.) and humidity (50±10%). The rooms were illuminated 12 hours per day. The rats had ad libitum access to food and water throughout the studies. Behavioral studies were conducted between 0600 and 1300 h. Animals were maintained in accordance with the guidelines of the Animal Care and Use Committee of the Bristol-Myers Squibb Company, the “Guide for Care and Use of Laboratory Animals” (Institute of Animal Laboratory Resources, 1996), and the guidelines published in the National Institutes of Health Guide for the Care and Use of Laboratory Animals. Research protocols were approved by the Bristol-Myers Squibb Company Animal Care and Use Committee. All compounds were prepared in 0.25% methylcellulose and administered PO. Chlordiazepoxide, diazepam, and desipramine were purchased from Sigma Chemical Company. (S)-4-(1-Cyclopropyl-2-methoxyethyl)-6-(6-(difluoromethoxy)-2,5-dimethylpyridin-3-ylamino)-5-oxo-4,5-dihydropyrazine-2-carbonitrile was dosed in the volume of 2 ml/kg. All standards were dosed in the volume of 2 ml/kg. For all tests, data were analyzed by analysis of variance, followed by Dunnett's t-tests for individual comparisons. The significance value was set at 0.05. The data are presented in the text and figures as mean±standard error of the mean (SEM). Male Sprague-Dawley rats were habituated to handling and dosing the day before testing. On the day of testing, all compounds were administered PO by gavage 60 minutes before behavioral testing. To initiate testing, each animal was placed in a small galvanized steel cylinder (14 cm length, 10 cm diameter), which was placed lengthwise against one wall of an illuminated open field (106 cm length×92 cm width×50 cm height). The open field was illuminated by a 60-W incandescent bulb and illumination was titrated by a powerstat transformer to a 30-lux reading at the entrance to the cylinder. Behavior was assessed for 15 minutes by a trained observer unaware of treatment assignment. The latency of the animal to exit the cylinder, defined by the placement of all four paws into the open field, and explore the open field was recorded (in seconds). […] The Plexiglas chamber and the cylinder were cleaned with 1.0% glacial acetic acid between animals to prevent olfactory cues from influencing the behavior of subsequently tested animals. Following behavioral testing, animals were sacrificed and plasma samples and brains were taken for analysis of plasma exposure and central receptor occupancy.

CRF2 receptor = target: T1, CRF2 receptor (Sus scrofa, UniProt B8Q4Z9); experiment: CRF2 binding assay, 125I-sauvagine competition, porcine choroid plexus membrane; conditions: n=3; read-out: IC50 at CRF2 receptors of porcine choroid plexus membrane
T1 construct: the CRF2 receptors endogenously expressed on the porcine choroid plexus membrane; from tissue; host or cells: porcine choroid plexus
T1 sequence (B8Q4Z9 1-411): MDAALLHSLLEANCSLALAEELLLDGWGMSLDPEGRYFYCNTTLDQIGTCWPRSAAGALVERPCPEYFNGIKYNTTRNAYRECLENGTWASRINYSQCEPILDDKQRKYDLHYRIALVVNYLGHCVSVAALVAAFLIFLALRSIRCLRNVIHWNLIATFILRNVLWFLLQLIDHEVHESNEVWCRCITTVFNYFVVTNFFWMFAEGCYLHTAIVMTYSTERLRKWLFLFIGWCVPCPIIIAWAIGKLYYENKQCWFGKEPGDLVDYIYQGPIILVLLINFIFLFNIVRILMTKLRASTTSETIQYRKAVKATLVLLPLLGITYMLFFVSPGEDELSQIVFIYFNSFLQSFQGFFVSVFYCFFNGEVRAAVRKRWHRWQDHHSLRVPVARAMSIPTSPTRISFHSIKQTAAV
Experimental: CRF2 Binding Assay. Frozen porcine choroid plexus was thawed rapidly in assay buffer containing 50 mM Hopes (pH 7.0 at 23° C.), 10 mM MgCl2, 2 mM EGTA, 1 μg/ml aprotinin, 1 μg/ml leupeptin, 1 μg/ml pepstatin A, 0.005% Triton X-100, 10 U/ml bacitracin and 0.1% ovalbumin and homogenized. The suspension was centrifuged at 32000×g for 30 minutes. The resulting supernatant was discarded and the pellet resuspended by homogenization in assay buffer and centrifuged again. The supernatant was discarded and the pellet resuspended by homogenization in assay buffer and frozen at −70° C. On the day of the experiment aliquots of the homogenate were thawed quickly and 10 μg/well added to 100 pM ^125I-sauvagine and drugs in a total volume of 100 μl assay buffer. The assay mixture was incubated for 2 hr at 21° C. Bound and free radioligand were then separated by rapid filtration using glass fiber filters (Whatman GF/B, pretreated with 0.3% PEI) on a Brandel Cell Harvester. Filters were then washed multiple times with ice cold wash buffer (PBS w/o Ca^2+ and Mg^2+, 0.01% Triton X-100 (pH 7.0 at 23° C.)). Non-specific binding was defined using 1 μM α-helical CRF (9-41). Filters were then counted in a Wallac Wizard gamma counter. IC50 values were determined in a five point (five drug concentrations) competition assay using non-linear regression by Microsoft Excel-fit.
Binding Results. […]

Male Sprague-Dawley rats [2] = conditions: previous CRF1 antagonists, literature (McElroy 2002; Lelas 2004); cited from earlier work

| IC50 (CRF2 receptor) | Compound | effect on exit latency (Male Sprague-Dawley rats [1]; 0.56 mg/kg PO, dose-response study) | effect on exit latency (Male Sprague-Dawley rats [1]; 1.0 mg/kg PO, dose-response study) | significant decrease of exit latency (Male Sprague-Dawley rats [1]; 1.0 mg/kg PO, single-dose study) | decrease in exit latency relative to vehicle-treated controls (Male Sprague-Dawley rats [1]; 1.8 mg/kg PO, dose-response study) | decrease in exit latency (Male Sprague-Dawley rats [1]; 1.8 mg/kg PO, single-dose study) | decrease in exit latency relative to vehicle-treated controls (Male Sprague-Dawley rats [1]; 3.0 mg/kg PO, dose-response study) | decrease in exit latency (Male Sprague-Dawley rats [1]; 3.0 mg/kg PO, single-dose study) | lowest effective dose (decrease of exit latency) (Male Sprague-Dawley rats [1]; PO, 60 minutes before testing) | anxiolytic-like effects, potency compared with standards (Male Sprague-Dawley rats [1]; PO, summary) | effectiveness in the situational anxiety model (Male Sprague-Dawley rats [2]) | decrease in exit latency (Male Sprague-Dawley rats [1]; 10 mg/kg, positive control, dose-response study) | decrease in exit latency (Male Sprague-Dawley rats [1]; 10 mg/kg, positive control, first single-dose study) | decrease in exit latency (Male Sprague-Dawley rats [1]; 10 mg/kg, positive control, second single-dose study) | decrease in exit latency (Male Sprague-Dawley rats [1]; 10 mg/kg, positive control, third single-dose study) |
| --- | --- | --- | --- | --- | --- | --- | --- | --- | --- | --- | --- | --- | --- | --- | --- |
| > 10 µM | COC[C@H](C1CC1)n1cc(C#N)nc(Nc2cc(C)c(OC(F)F)nc2C)c1=O [(S)-4-(1-cyclopropyl-2-methoxyethyl)-6-(6-(difluoromethoxy)-2,5-dimethylpyridin-3-ylamino)-5-oxo-4,5-dihydropyrazine-2-carbonitrile] | did not significantly alter exit latency | did not significantly alter exit latency | but not of 1.0 mg/kg | 60% | 53% | 56% | 51% | 1.8 mg/kg | comparable potency to the benzodiazepines diazepam and chlordiazepoxide | – | – | – | – | – |
| – | COCC(COC)Nc1nc(C)nc2c(-c3ccc(Cl)cc3Cl)c(C)nn12 [DMP696] | – | – | – | – | – | – | – | – | – | effective | 62% | 57% | 74% | 81% |
